Source: US4808618A, “Substituted 1,3-dialkylpyrido[4,3-d]pyrimidine-2,4-diones” (Nippon Zoki Pharmaceutical Co., Ltd., priority 1986, dated 1989)

Key:
[1] = Acute toxicity test (oral, LD50 by Litchfield-Wilcoxon's method); conditions: mouse, in vivo, ICR-strain male mice, groups of 5, mortality for 14 days
Protocol: The test compounds were orally administered to groups of 5 ICR-strainmale mice. LD50 value of the compound of the present invention was calculated by the Litchfield-Wilcoxon's method based on mortality for 14 days after drug administration.

[2] = tested on: PCA (Passive Cutaneous Anaphylaxis) reaction; test: PCA (Passive Cutaneous Anaphylaxis) reaction in rats, anti-allergic effect; type: in vivo, rat (Wister-strain; conditions: 20 mg/kg oral, 1 hour before challenge; Wister-strain male rats; dye absorbance at 620 nm
Protocol: PCA (Passive Cutaneous Anaphylaxis) reaction in rats was taken as an index to an anti-allergic effect of the compound of the present invention.
In order to perform sensitization, anti-DNP-Asc (dinitrophenylated Ascaris extracts) serum diluted with saline was injected intradermally at 4 sites on the shaved back of groups of 6 Wister-strain male rats (6 weeks of age). 1 hour after oral administration of the test drug, the mixture of equivalent amount of DNP-Asc (5 mg/ml) and 2% Evans blue were intravenously injected to generate PCA reaction. 30 minutes thereafter, rats were killed by decapitation and exsanguinated. The skin was opened in order to evaluate the leakage of blue dye. The obtained skin was dissolved in 2N potassium hydroxide, then 2N phosphoric acid and acetone were added thereto. The amount of dye was determined by measurement of absorbance at 620 nm after centrifugation.

| Structure (SMILES) | LD50 at 336 h [1] [mg/kg] | Inhibition (PCA reaction) [2] [%] |
| --- | --- | --- |
| CC(C)Nc1nccc2c1c(=O)n(C)c(=O)n2C [Compound 8, 5-isopropylamino-1,3-dimethylpyrido[4,3-d]pyrimidine-2,4-dione] | 700 | 73.4 |
| Cn1c(=O)c2[nH]cnc2n(C)c1=O [Theophylline, reference compound] |  | 78.7 |
| Cn1c(=O)c2c(N)nccc2n(C)c1=O [Compound 3, 5-amino-1,3-dimethylpyrido[4,3-d]pyrimidine-2,4-dione] | 710 | 77.3 |
| CNc1nccc2c1c(=O)n(C)c(=O)n2C [Compound 6, 5-methylamino-1,3-dimethylpyrido[4,3-d]pyrimidine-2,4-dione] | 720 | 92.0 |
| CCn1c(=O)c2c(NC)nccc2n(CC)c1=O [Compound 7, 5-methylamino-1,3-diethylpyrido[4,3-d]pyrimidine-2,4-dione] |  | 72.7 |
| CCn1c(=O)c2c(N)nccc2n(CC)c1=O [Compound 4, 5-amino-1,3-diethylpyrido[4,3-d]pyrimidine-2,4-dione] |  | 89.3 |
| Cn1c(=O)c2cnccc2n(C)c1=O [Compound 1, 1,3-dimethylpyrido[4,3-d]pyrimidine-2,4-dione] | 400 | 85.3 |
